Results published in ChEMBL document CHEMBL1914343, “Recent progress in synthesis and bioactivity studies of indolizines” (Eur J Med Chem, 2011).

Experiments:
[1] = tested on: Mycobacterium tuberculosis; assay: Antimycobacterial activity against Mycobacterium tuberculosis H37Rv ATCC 27294 at 6.25 ug/mL by microplate alamar blue assay; type: functional
[2] = Inhibition of soybean arachidonate 15-lipoxygenase; parameters: species or system Glycine max
[3] = target: T1, Polyunsaturated fatty acid lipoxygenase ALOX15 (Oryctolagus cuniculus, UniProt P12530); assay: Inhibition of rabbit reticulocytes arachidonate 15-lipoxygenase
T1 sequence (P12530 whole entry): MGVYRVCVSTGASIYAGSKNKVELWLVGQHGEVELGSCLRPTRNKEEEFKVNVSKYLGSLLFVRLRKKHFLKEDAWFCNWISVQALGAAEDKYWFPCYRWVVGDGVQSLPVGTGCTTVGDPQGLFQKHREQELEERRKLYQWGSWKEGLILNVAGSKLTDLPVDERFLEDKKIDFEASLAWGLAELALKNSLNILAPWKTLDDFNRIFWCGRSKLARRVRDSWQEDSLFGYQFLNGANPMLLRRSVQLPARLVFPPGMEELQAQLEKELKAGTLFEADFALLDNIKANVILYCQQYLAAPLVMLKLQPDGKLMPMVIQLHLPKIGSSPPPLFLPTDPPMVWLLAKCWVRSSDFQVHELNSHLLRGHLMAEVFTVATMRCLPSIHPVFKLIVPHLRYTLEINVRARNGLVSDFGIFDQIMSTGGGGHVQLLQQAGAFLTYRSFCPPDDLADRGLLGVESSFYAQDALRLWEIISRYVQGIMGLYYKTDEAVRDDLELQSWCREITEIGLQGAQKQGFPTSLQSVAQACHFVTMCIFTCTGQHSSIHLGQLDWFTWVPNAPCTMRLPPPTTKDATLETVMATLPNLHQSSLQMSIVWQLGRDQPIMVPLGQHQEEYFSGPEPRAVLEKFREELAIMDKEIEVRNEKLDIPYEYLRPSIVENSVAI

[4] = tested on: Radical scavenging activity; assay: Antioxidant activity assessed as DPPH radical scavenging activity at 667 uM after 15 mins; type: functional
[5] = Antioxidant activity assessed as inhibition of lipid peroxidation after 30 mins; type: functional

Compound | inhibition at 6.25 µg/mL [1] [%] | IC50 [2] [µM] | IC50 [3] [µM] | Activity [4] [%] | IC50 [5] [µM]
N#Cc1ccn2c(-c3ccccc3)c(-c3ccccc3)c(C=O)c2c1 | 35 | 29 | 61 |  | 
N#Cc1ccn2c(-c3ccccc3)c(-c3ccccc3)c(OCc3ccc(F)cc3)c2c1 |  | 35 |  | 1.8 | 
N#Cc1ccn2c(-c3ccc(Cl)cc3)c(-c3ccc(Cl)cc3)cc2c1 |  | 33 |  |  | 
CC(C)c1ccc(S(=O)(=O)Oc2c(-c3ccccc3)c(-c3ccccc3)n3ccc(C#N)cc23)cc1 |  | 16 |  |  | 
Cc1ccc(-c2cc3cc(C#N)ccn3c2-c2ccc(C)cc2)cc1 |  | 27 |  |  | 
N#Cc1ccn2c(-c3ccccc3)c(-c3ccccc3)c(OCc3ccccc3)c2c1 |  | 31 |  | 0.8 | 
COc1ccc(-c2c(OS(=O)(=O)c3ccc(C)cc3)c3cc(C#N)ccn3c2-c2ccc(OC)cc2)cc1 |  | 24 |  |  | 
Cc1ccc(S(=O)(=O)Oc2c(-c3ccccc3)c(-c3ccccc3)n3ccc(C#N)cc23)cc1 |  | 17 | 25 |  | 3.64
CS(=O)(=O)Oc1c(-c2ccccc2)c(-c2ccccc2)n2ccc(C#N)cc12 |  | 22 |  |  | 
CC(=O)Oc1c(-c2ccccc2)c(-c2ccccc2)n2ccc(C#N)cc12 |  | 31 | 75 | -0.5 | 0.15
COc1ccc(C(=O)Oc2c(-c3ccccc3)c(-c3ccccc3)n3ccc(C#N)cc23)cc1 |  | 28 |  | 5.4 | 
COC(c1ccccc1)c1c(-c2ccccc2)c(-c2ccccc2)n2ccc(C#N)cc12 (stereo not given) | 74 | 21 |  |  | 
N#Cc1ccn2c(-c3ccccc3)c(-c3ccccc3)c(-c3ccccc3)c2c1 | 8 | 28 |  |  | > 100
N#Cc1ccn2c(-c3ccccc3)c(-c3ccccc3)c(OS(=O)c3cccs3)c2c1 (stereo not given) |  | 21 |  |  | 
CC(=O)c1ccn2c(-c3ccccc3)c(-c3ccccc3)c(OS(=O)(=O)c3ccc(C)cc3)c2c1 |  | 23 |  |  | 
COc1ccc(S(=O)(=O)Oc2c(-c3ccccc3)c(-c3ccccc3)n3ccc(C#N)cc23)cc1 |  | 25 |  |  | 
COc1ccc(S(=O)(=O)Oc2c(-c3ccc(C)cc3)c(-c3ccc(C)cc3)n3ccc(C#N)cc23)cc1 |  | 25 |  |  | 
N#Cc1ccn2c(-c3ccccc3)c(-c3ccccc3)c(-c3cccs3)c2c1 |  | 20 |  | -1.8 | > 100
Cc1ccc(S(=O)(=O)Oc2c(-c3ccc(Cl)cc3)c(-c3ccc(Cl)cc3)n3ccc(C#N)cc23)cc1 |  | 20 |  |  | 
Cc1ccc(S(=O)(=O)c2c(-c3ccccc3)c(-c3ccccc3)n3ccc(C#N)cc23)cc1 |  | 29 |  |  | 
N#Cc1ccn2c(-c3ccccc3)c(-c3ccccc3)c(OCOCc3ccccc3)c2c1 |  | 27 | 39 | 0.1 | 
N#Cc1ccn2c(-c3ccccc3)c(-c3ccccc3)c(Br)c2c1 | 69 |  |  |  | > 100
COc1ccccc1C(=O)Oc1c(-c2ccccc2)c(-c2ccccc2)n2ccc(C#N)cc12 |  | 30 |  | 4.7 | 

Compound | inhibition at 6.25 µg/mL [1] [%] | IC50 [2] [µM] | IC50 [3] [µM] | Activity [4] [%] | IC50 [5] [µM]
COc1ccc(-c2c(-c3ccccc3)c(-c3ccccc3)n3ccc(C#N)cc23)cc1 |  | 20 | 37 | -0.9 | > 100
N#Cc1ccn2c(-c3ccccc3)c(-c3ccccc3)c(C(=O)c3ccccc3)c2c1 | 33 | 23 | 43 |  | 
COc1cccc(C(=O)Oc2c(-c3ccccc3)c(-c3ccccc3)n3ccc(C#N)cc23)c1 |  | 28 |  | 1.2 | 
Cc1ccc(S(=O)(=O)Oc2c(-c3ccc(F)cc3)c(-c3ccc(F)cc3)n3ccc(C#N)cc23)cc1 |  | 22 |  |  | 
Cc1c(-c2ccccc2)c(-c2ccccc2)n2ccc(C#N)cc12 | 41 | 27 |  | -0.9 | 
COc1ccccc1COc1c(-c2ccccc2)c(-c2ccccc2)n2ccc(C#N)cc12 |  | 29 |  | 1.6 | 
N#Cc1ccn2c(-c3ccccc3)c(-c3ccccc3)c(-c3ccsc3)c2c1 |  | 19 |  | 0 | > 100
COc1c(-c2ccccc2)c(-c2ccccc2)n2ccc(C#N)cc12 |  | 33 | 77 | -0.6 | 22
COc1cccc(-c2c(-c3ccccc3)c(-c3ccccc3)n3ccc(C#N)cc23)c1 |  | 20 |  | -0.3 | > 100
CC(=O)c1c(-c2ccccc2)c(-c2ccccc2)n2ccc(C#N)cc12 | 21 | 23 | 44 |  | > 100
COc1ccccc1-c1c(-c2ccccc2)c(-c2ccccc2)n2ccc(C#N)cc12 |  | 20 |  | -0.2 | > 100
CS(=O)(=O)c1ccc(S(=O)(=O)Oc2c(-c3ccccc3)c(-c3ccccc3)n3ccc(C#N)cc23)cc1 |  | 24 |  |  | 
N#Cc1ccn2c(-c3ccccc3)c(-c3ccccc3)c(Cc3ccccc3)c2c1 | 43 | 27 | 46 |  | 
CC(O)c1c(-c2ccccc2)c(-c2ccccc2)n2ccc(C#N)cc12 (stereo not given) | 78 | 26 |  |  | 
N#Cc1ccn2c(-c3ccccc3)c(-c3ccccc3)c(CO)c2c1 | 67 | 26 | 34 |  | 
N#Cc1ccn2c(-c3ccccc3)c(-c3ccccc3)c(OS(=O)c3ccsc3)c2c1 (stereo not given) |  | 23 |  |  | 
COc1ccc(OC)c(S(=O)(=O)Oc2c(-c3ccccc3)c(-c3ccccc3)n3ccc(C#N)cc23)c1 |  | 15 |  |  | 
CCc1c(OS(=O)(=O)c2ccc(C)cc2)c2cc(C#N)ccn2c1CC |  | 29 |  |  | 
COc1ccc(S(=O)(=O)Oc2c(-c3ccccc3)c(-c3ccccc3)n3ccc(C#N)cc23)c(OC)c1 |  | 27 |  |  | 
N#Cc1ccn2c(-c3ccc(F)cc3)c(-c3ccc(F)cc3)cc2c1 |  | 30 |  |  | 
COc1ccc(COc2c(-c3ccccc3)c(-c3ccccc3)n3ccc(C#N)cc23)cc1 |  | 32 |  | 33.3 | 
COc1ccc(C(O)c2c(-c3ccccc3)c(-c3ccccc3)n3ccc(C#N)cc23)cc1 (stereo not given) | 87 | 17 |  |  | 
Cc1ccc(S(=O)(=O)Oc2c(-c3ccccc3)c(-c3ccccc3)n3ccc(C#N)cc23)cc1C |  | 19 |  |  | 

Compound | inhibition at 6.25 µg/mL [1] [%] | IC50 [2] [µM] | IC50 [3] [µM] | Activity [4] [%] | IC50 [5] [µM]
Cc1ccccc1S(=O)(=O)Oc1c(-c2ccccc2)c(-c2ccccc2)n2ccc(C#N)cc12 |  | 22 |  |  | 
CC(O)(c1ccccc1)c1c(-c2ccccc2)c(-c2ccccc2)n2ccc(C#N)cc12 (stereo not given) | 71 | 17 |  |  | 
N#Cc1ccn2c(-c3ccccc3)c(-c3ccccc3)c(OS(=O)(=O)c3ccccc3)c2c1 |  | 24 |  |  | 
Cc1ccc(S(=O)(=O)Oc2c(-c3ccccc3)c(-c3ccccc3)n3ccccc23)cc1 |  | 25 |  |  | 
CCS(=O)(=O)Oc1c(-c2ccccc2)c(-c2ccccc2)n2ccc(C#N)cc12 |  | 28 |  |  | 
Cc1cc(C)c(S(=O)(=O)Oc2c(-c3ccccc3)c(-c3ccccc3)n3ccc(C#N)cc23)c(C)c1 |  | 17 |  |  | 
Cc1ccc(COc2c(-c3ccccc3)c(-c3ccccc3)n3ccc(C#N)cc23)cc1 |  | 37 |  | -0.8 | 
N#Cc1ccn2c(-c3ccccc3)c(-c3ccccc3)c(OS(=O)(=O)c3ccc(C(F)(F)F)cc3)c2c1 |  | 23 |  |  | 
CCCCc1c(OS(=O)(=O)c2ccc(C)cc2)c2cc(C#N)ccn2c1CCCC |  | 30 |  |  | 
N#Cc1ccn2c(-c3ccccc3)c(-c3ccccc3)c(OCOC(COCc3ccccc3)COCc3ccccc3)c2c1 |  | 31 |  | 4.2 | 
CN(C)S(=O)(=O)Oc1c(-c2ccccc2)c(-c2ccccc2)n2ccc(C#N)cc12 |  | 25 |  |  | 
N#Cc1ccn2c(-c3ccccc3)c(-c3ccccc3)c(-c3ccco3)c2c1 |  | 24 |  | -0.6 | > 100
O=c1c(O)c(-c2ccc(O)c(O)c2)oc2cc(O)cc(O)c12 [QUERCETIN] |  | 51 | 37 |  | 
Cc1ccc(-c2c(OS(=O)(=O)c3ccc(C)cc3)c3cc(C#N)ccn3c2-c2ccc(C)cc2)cc1 |  | 20 |  |  | 
CC(C)S(=O)(=O)Oc1c(-c2ccccc2)c(-c2ccccc2)n2ccc(C#N)cc12 |  | 42 |  |  | 
N#Cc1ccn2c(-c3ccccc3)c(-c3ccccc3)c(OCc3ccc(Cl)cc3)c2c1 |  | 31 |  | 1.3 | 
N#Cc1ccn2c(-c3ccccc3)c(-c3ccccc3)c(OS(=O)(=O)c3ccc(Cl)cc3)c2c1 |  | 22 |  |  | 
N#Cc1ccn2c(-c3ccccc3)c(-c3ccccc3)cc2c1 | 9 | 30 | 51 | -0.2 | > 100
N#Cc1ccn2c(-c3ccccc3)c(-c3ccccc3)c(OCc3cccc(Cl)c3)c2c1 |  | 31 |  | -0.1 | 
Cc1ccc(S(=O)(=O)Oc2c(-c3ccccc3)c(-c3ccccc3)n3ccc(C=O)cc23)cc1 |  | 20 |  |  | 
C=Cc1c(-c2ccccc2)c(-c2ccccc2)n2ccc(C#N)cc12 |  |  |  |  | > 100
N#Cc1ccn2c(-c3ccccc3)c(-c3ccccc3)c(OS(=O)(=O)C(F)(F)F)c2c1 |  | 46 | 59 | 79.5 | 0.6
